Data: patent US20230382904A1, “SUBSTITUTED 4-([1,2,4]TRIAZOLO[1,5-a]PYRIDIN-6-YL)THIOPHENE-2-CARBOXAMIDE DERIVATIVES AND USE THEREOF” (The Johns Hopkins University, priority 2020, published 2023)

Legend:
DLK = DLK (Homo sapiens (Human), UniProt Q12852); assay: DLK biochemical assay (TR-FRET, MKK7 phosphorylation)
Summary of the method: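 TR-FRET ratio (665/Eu) reports MKK7 T275/S277 phosphorylation, lowered by DLK inhibition. Reaction: 60 μM ATP, 15 nM MKK7, 10 nM DLK catalytic domain, 90 min room temperature; detection incubation 16 h, 37° C. (1536-well) or 4° C. (384-well). Final concentrations.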

[1] = Ischemia/Reperfusion (I/R) rat model, optokinetic tracking; format: in vivo; settings: prophylactic setting, after a 20 minute ischemic event
Method: The animals were placed under anesthesia (Rompun (Xylazin als Xylazinhydrochlorid) 2%, Bayer, PZN-1320422, Ketavet (Ketaminhydrochlorid) 100 mg/mL, Pfizer, PZN-3151811) and the pupil on the right eye dilated (Neosynephrin-POS 5% Augentropfen, […], PZN 0828584).
When anesthetized, local anesthetic eye drops (Alcaine, lokalanästhetische Augentropfen, Alcon, 37516058) were applied to the right eye. The rat is on the left side. After a short exposure time, a 30G cannula was inserted laterally into the anterior chamber of the eye. To do this, the eye was fixed with a cotton swab so that it emerged from the eye socket. Once the cannula was placed, the eye was carefully released. The 30G cannula was connected via infusion set to a bag of isotonic infusion solution. The infusion bag hung in a pressure cuff. The pressure was regulated via the pressure cuff and the manometer. For the model, the intraocular pressure is increased to 120 mm Hg. The duration is 20 min. If the cannula fits correctly, the eye turns white, because the blood circulation was interrupted. During treatment, the rats lied on a warm mat (level 2). It was necessary to observe the anesthetic state of the animal. […]
For the optomotry readout only the spatial resolution is measured (spatial frequency). Both eyes were measured. […]

DLK, sequence (Q12852 1-520): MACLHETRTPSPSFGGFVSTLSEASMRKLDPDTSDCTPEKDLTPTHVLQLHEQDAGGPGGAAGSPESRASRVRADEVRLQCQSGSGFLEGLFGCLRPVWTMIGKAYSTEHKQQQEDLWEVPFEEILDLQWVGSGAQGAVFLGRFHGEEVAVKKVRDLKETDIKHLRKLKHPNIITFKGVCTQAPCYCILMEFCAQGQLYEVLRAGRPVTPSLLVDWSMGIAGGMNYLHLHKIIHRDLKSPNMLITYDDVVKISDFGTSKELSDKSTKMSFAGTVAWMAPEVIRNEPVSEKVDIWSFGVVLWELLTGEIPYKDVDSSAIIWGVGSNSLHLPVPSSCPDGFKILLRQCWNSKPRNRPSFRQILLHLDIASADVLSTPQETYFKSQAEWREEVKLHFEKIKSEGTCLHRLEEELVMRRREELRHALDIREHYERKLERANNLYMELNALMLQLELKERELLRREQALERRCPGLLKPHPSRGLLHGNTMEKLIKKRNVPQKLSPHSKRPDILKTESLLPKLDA

## CC[C@H](NC(=O)c1cc(-c2cc(C(=O)N[C@@H](C)CC)c3nc(N)nn3c2)cs1)c1ccc(F)cc1 [Compound 112, 2-Amino-N-[(2S)-butan-2-yl]-6-(5-{[(1S)-1-(4-fluorophenyl)propyl]carbamoyl}thiophen-3-yl)[1,2,4]triazolo[1,5-a]pyridine-8-carboxamide]
DLK
  IC50: 3.2 nM
[1]
  retained vision: ~80%
